Measured values reported in ChEMBL document CHEMBL3046152, “Synthesis and fungicide activity of 2,3-dihydroimidazo [2,1-b]thiazole-5-carboxamides” (1995).

Key:
Format in all cases: functional
Parastagonospora nodorum [1] = experiment: Fungicidal activity against Phaeosphaeria nodorum inoculated in 24 hr compound-treated plant foliage assessed as disease control at 40 ppm measured after 7 days
Oculimacula yallundae [2] = experiment: Fungicidal activity against Oculimacula yallundae inoculated in 24 hr compound-treated plant foliage assessed as disease control at 40 ppm measured after 7 days
Parastagonospora nodorum [3] = experiment: Fungicidal activity against Phaeosphaeria nodorum inoculated in 24 hr compound-treated plant foliage assessed as disease control at 200 ppm measured after 7 days
Oculimacula yallundae [4] = experiment: Fungicidal activity against Oculimacula yallundae inoculated in 24 hr compound-treated plant foliage assessed as disease control at 200 ppm measured after 7 days
Parastagonospora nodorum [5] = experiment: Fungicidal activity against Phaeosphaeria nodorum inoculated in 24 hr compound-treated plant foliage assessed as disease control at 20 ppm measured after 7 days
Oculimacula yallundae [6] = experiment: Fungicidal activity against Oculimacula yallundae inoculated in 24 hr compound-treated plant foliage assessed as disease control at 20 ppm measured after 7 days

O=C(Nc1c(Cl)cccc1Cl)c1c(-c2ccccc2)nc2n1CCS2(=O)=O
Activity (Parastagonospora nodorum [1]): 23%
Activity (Oculimacula yallundae [2]): 9%

O=C(Nc1c(Cl)cccc1Cl)c1c(Cl)nc2n1CCS2(=O)=O
Activity (Parastagonospora nodorum [1]): 0%
Activity (Oculimacula yallundae [2]): 39%

O=C(c1c(Cl)nc2n1CCS2(=O)=O)N1CCCCC1
Activity (Parastagonospora nodorum [3]): 23%
Activity (Oculimacula yallundae [4]): 0%

O=C(c1c(Cl)nc2n1CCS2(=O)=O)N1CCOCC1
Activity (Parastagonospora nodorum [1]): 23%
Activity (Oculimacula yallundae [2]): 0%

CN(C(=O)c1c(Cl)nc2n1CCS2(=O)=O)c1ccccc1
Activity (Parastagonospora nodorum [3]): 0%
Activity (Oculimacula yallundae [4]): 39%

O=C(Nc1ccccn1)c1c(Cl)nc2n1CCS2(=O)=O
Activity (Parastagonospora nodorum [3]): 0%
Activity (Oculimacula yallundae [4]): 100%

CCNC(=O)c1c(Cl)nc2n1CCS2(=O)=O
Activity (Parastagonospora nodorum [1]): 23%
Activity (Oculimacula yallundae [2]): 39%

Cc1nc2n(c1C(=O)Nc1c(Cl)cccc1Cl)CCS2(=O)=O
Activity (Parastagonospora nodorum [1]): 23%
Activity (Oculimacula yallundae [2]): 0%

Cc1nc2n(c1C(=O)N1CCCCC1)CCS2(=O)=O
Activity (Parastagonospora nodorum [3]): 23%
Activity (Oculimacula yallundae [4]): 0%

Cc1nc2n(c1C(=O)Nc1ccccn1)CCS2(=O)=O
Activity (Parastagonospora nodorum [3]): 0%
Activity (Oculimacula yallundae [4]): 100%

Cc1nc2n(c1C(=O)Nc1ccccc1)CCS2(=O)=O
Activity (Parastagonospora nodorum [3]): 23%
Activity (Oculimacula yallundae [4]): 54%

C[Si](Cn1cncn1)(c1ccc(F)cc1)c1ccc(F)cc1 [FLUSILAZOLE]
Activity (Parastagonospora nodorum [5]): 99%
Activity (Oculimacula yallundae [6]): 98%
